Measured values reported in patent US7029868B2, “Cell fusion assays using fluorescence resonance energy transfer” (Merck & Co., Inc., priority 2000, dated 2006).

What was measured:
HIV-1 [1] = details: SCID-hu mice; Datema et al., 1996; cited from earlier work
HIV-1 [2] = details: certain cultured cells; Cocchi et al., 1995; cited from earlier work
[3] = tested on: fusion mediated by CD4, CXCR4, and the HIV-1 Env protein gp143; assay: CHO cell/Jurkat cell fusion assay, β-lactamase/CCF2 FRET readout; assay type: cell-based; details: CHO gp143/HXB2 cells with Jurkat β-lactamase cells
Description: Jurkat cells expressing β-lactamase (and which naturally express CXCR4 and CD4) were added to the CHO cells and incubated at 37° C. for a period sufficient to allow fusion to occur. The non-fused cells were removed by washing and the fluorogenic 1β-lactamase substrate CCF2/AM was added to the remaining cells. After a 1 hour incubation at room temperature, cell fusion was measured by fluorescence on a fluorescence plate reader. The ratio of emission of the donor dye (7-hydroxycoumarin) over emission of the acceptor dye (fluorescein) was measured.
Fusion is measured by observing the ratio of blue emission (460 nm) to green emission (530 nm). A high ratio indicates more fusion; a low ratio indicates less fusion.
CHO cells expressing gp143/HXB2 were plated in 96-well black, clear-bottom plates (Costar catalogue number 3603) at 5×10^4 cells per well in 200 μl of medium per well. The medium was Iscove's Modified Dulbecco's Medium (Gibco catalogue number 12440-046) supplemented with: 10% fetal bovine serum, G418 (1 mg/ml), 1 mg/ml penicillin/streptomycin (Gibco catalogue number 15140-122), glutamine (2 mM), and HT (ATCC 71-X).
The cells were incubated overnight at 37° C. […]
The plates were read on a Cytofluor II fluorescence plate reader (PerSeptive Biosystems) at 2 scans/cycle. […]

c1cc(CN2CCCNCCNCCCNCC2)ccc1CN1CCCNCCNCCCNCC1 [AMD3100]
inhibition of HIV-1 replication (HIV-1 [1]): inhibits HIV-1 replication

RANTES
suppression of HIV-1 replication (HIV-1 [2]): able to suppress HIV-1 replication

SDF-1: the natural ligand for CXCR4 (PeproTech Inc.); a chemokine
inhibition of fusion (in words) [3]: dose-dependent inhibition of fusion
